{
  "source": "patent US11273161B2",
  "about": "“Methods of treating autism spectrum disorders” (The Broad Institute, Inc., priority 2016, dated 2022)",
  "key": {"ADSS [1]": {"target": "T1, ADSS (Mus musculus, UniProt P46664)", "T1 construct": "endogenous in cells; host or cells: primary mouse neurons, DIV21 (WT in A3; WT and Kctd13Δ47 in A4)", "T1 sequence (P46664 whole entry)": "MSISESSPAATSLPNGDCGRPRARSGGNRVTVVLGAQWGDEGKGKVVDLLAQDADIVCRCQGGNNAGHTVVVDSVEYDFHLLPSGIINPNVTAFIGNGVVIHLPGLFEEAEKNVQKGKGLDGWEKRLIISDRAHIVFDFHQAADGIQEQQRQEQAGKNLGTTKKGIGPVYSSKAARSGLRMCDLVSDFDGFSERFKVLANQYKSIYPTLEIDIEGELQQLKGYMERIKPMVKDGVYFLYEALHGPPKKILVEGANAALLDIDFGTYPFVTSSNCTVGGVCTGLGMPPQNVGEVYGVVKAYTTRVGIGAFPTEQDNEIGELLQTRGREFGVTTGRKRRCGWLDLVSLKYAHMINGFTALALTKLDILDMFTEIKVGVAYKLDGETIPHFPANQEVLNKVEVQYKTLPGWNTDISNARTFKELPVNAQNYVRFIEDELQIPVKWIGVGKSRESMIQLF", "test": "Dose-response of IMP levels in cell lysates of DIV21 neurons from WT mice", "type": "cell-based", "settings": "FIG. 20", "procedure": "FIGS. 20A-B show IMP levels in cell lysates of DIV21 neurons from WT mice following treatment with D, L-alanosine or L-alanosine, or untreated (U).\n16p11.2 deletion patient fibroblast samples were acquired from the Simons Foundation VIP collection. For comparison, fibroblasts from unaffected individuals were obtained from Mclean Hospital collection of primary fibroblasts (Cohen, Ongur, McPhee). Fibroblasts were grown in DMEM supplemented with 10% serum (Gibco). For metabolic experiments, 160,000 cells/well were plated in DMEM (Gibco) supplemented with 10% fetal bovine serum (Gibco) in 12 well plates. […]\nNext, metabolic changes were determined between 16p11.2 deletion patient fibroblasts compared with control fibroblasts. […]\n(§1) Raw data were processed using MultiQuant 1.2 software (AB SCIEX) for automated LC-MS peak integration. […] Internal standard peak areas were monitored for quality control, to assess system performance over time, and to identify any outlier samples requiring re-analysis. A pooled plasma reference sample was also analyzed after sets of 20 study samples as an additional quality control measure of analytical performance and to serve as reference for scaling raw LC-MS peak areas across sample batches. […]\nNext, purine metabolites were assessed in cell lysates and supernatants of cultured neurons from wild-type and kctd13Δ47 mice. […]"}, "ADSS [2]": {"target": "T2, ADSS (Homo sapiens, UniProt P30520)", "T2 construct": "fibroblasts from unaffected individuals were obtained from Mclean Hospital collection of primary fibroblasts; endogenous in cells; host or cells: primary human control fibroblasts (McLean Hospital collection)", "T2 sequence (P30520 whole entry)": "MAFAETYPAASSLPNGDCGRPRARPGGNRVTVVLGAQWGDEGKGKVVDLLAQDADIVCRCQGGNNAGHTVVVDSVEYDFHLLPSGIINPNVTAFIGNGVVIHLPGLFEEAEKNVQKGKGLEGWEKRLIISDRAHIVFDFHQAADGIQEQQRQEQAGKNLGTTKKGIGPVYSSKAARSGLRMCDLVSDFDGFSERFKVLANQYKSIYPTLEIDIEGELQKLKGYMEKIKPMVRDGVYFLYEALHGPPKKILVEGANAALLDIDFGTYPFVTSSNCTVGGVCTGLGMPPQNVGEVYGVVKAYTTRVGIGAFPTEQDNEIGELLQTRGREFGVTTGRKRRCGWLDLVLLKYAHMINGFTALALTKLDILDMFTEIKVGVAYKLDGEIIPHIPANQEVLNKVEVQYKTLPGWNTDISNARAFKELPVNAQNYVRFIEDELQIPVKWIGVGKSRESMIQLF", "test": "LC-MS purine metabolite levels in human control fibroblast cell lysates after ADSS inhibition", "type": "cell-based", "settings": "human control fibroblasts, 12 hours, 10 mg/mL, FIG. 19", "procedure": "(§2) 16p11.2 deletion patient fibroblast samples were acquired from the Simons Foundation VIP collection. For comparison, fibroblasts from unaffected individuals were obtained from Mclean Hospital collection of primary fibroblasts (Cohen, Ongur, McPhee). Fibroblasts were grown in DMEM supplemented with 10% serum (Gibco). For metabolic experiments, 160,000 cells/well were plated in DMEM (Gibco) supplemented with 10% fetal bovine serum (Gibco) in 12 well plates. For neurons, 1 million primary mouse neurons/well were plated in 6 well plates and were extracted similar to fibroblasts as described below except volumes were doubled to accommodate the extra surface area.\nNext, metabolic changes were determined between 16p11.2 deletion patient fibroblasts compared with control fibroblasts. For metabolite extraction, samples were collected from either cells or the cell media. Cell samples were extracted from cells grown in 12 well plates. Cell samples were extracted by washing cells once with 1 mL ice-cold PBS, transferring to dry ice, followed by adding 400 μL of 80% methanol (VWR) containing the internal standards inosine-^15N4, thymine-d4, and glycocholate-d4 (Cambridge Isotope Laboratories). Cells were then incubated for 15 minutes at −80° C., followed by scraping and transfer of the methanol and cells to a 1.5 mL tube. Cells were centrifuged (10 min, 9,000 g, 4° C.), and the supernatant was transferred to a new 1.5 mL tube. The pellet was extracted again with 50 μL of 80% methanol containing internal standards and centrifuged. The supernatant was then pooled with the previously collected methanol sample. Media supernatant samples (30 μL) were extracted using 120 μL of 80% methanol (VWR) containing the internal standards inosine-^15N4, thymine-d4, and glycocholate-d4 (Cambridge Isotope Laboratories). The samples were centrifuged (10 min, 9,000 g, 4° C.). The resulting supernatant was transferred to a new tube. Samples were stored at −80° C. until analysis.\nA method using basic hydrophilic interaction chromatography (HILIC) separation and negative ionization mode MS detection was established on an LC-MS system consisting of an ACQUITY UPLC (Waters Inc.) coupled to a 5500 QTRAP triple quadrupole mass spectrometer (AB SCIEX). […]\nas §1"}, "ADSS [3]": {"target": "T1, ADSS", "test": "S-Ado levels in cultured neurons from kctd13Δ47 mice contacted with L-alanosine", "type": "cell-based", "settings": "increasing concentrations (0, 0.01, 0.1 μM), FIG. 22", "procedure": "as §2\nNext, metabolic changes were determined between 16p11.2 deletion patient fibroblasts compared with control fibroblasts. For metabolite extraction, samples were collected from either cells or the cell media. […]\nas §1"}, "ADSS [4]": {"tested_on": "ADSS", "test": "Western blot of ADSS protein levels in neurons after proteasome or Cullin inhibition", "type": "cell-based, mouse", "settings": "neurons from Kctd13Δ47 mice, treated 5 hours with 2 μM, FIG. 5", "excerpt": "Protein lysates were generated from mouse neurons prepared from wildtype or Kctd13Δ47 mice. C57B6 timed pregnant females were euthanized following IACUC approved method. E18 embryos were collected and rapidly decapitated. Embryos were then washed in dissection media (Hibernate-E (Hib-E, Gibco) supplemented with 100 U/mL penicillin streptomycin (Pen/Strep, Gibco)). Brains were isolated, cortices were separated from the midbrain and meninges was removed from each cortex. Each cortex was cut into six pieces; five cortices were pooled for dissociation. To dissociate 5 cortices, one Papain kit (Worthington LK3176) was reconstituted in 5 mLs Hib-E and activated at 37° C. for 10 minutes. Following activation, DNAse I (Sigma) was added to a concentration of 10 μg/mL and filter sterilized using a 0.22 μm filter. Cortices were washed twice with 5 mLs of Hib-E and 5 mLs of activated papain/DNAseI was added to the cortices and incubated for 8 minutes at 37° C. Following digestion, cortices were washed three times with 10 ml Hib-E per wash. Cortices were then triturated 10-15 times with a P1000 pipette in 1 mL NBActive4 supplemented with 10 μg/mL DNAseI filter sterilized using a 0.22 μm filter. […] Cells were counted in a hemocytometer, diluted and plated at 1 million cells/well in a 6 well poly-D-lysine (Corning, Biocoat) or 6 million cells/10 cm poly-D-lysine plate (Corning, Biocoat). […]"}},
  "data": [
    {"molecule": "NC(CN(O)N=O)C(=O)O", "note": "(racemic) [D,L-alanosine, 3-(Hydroxynitrosoamino)-D,L-alanine]", "values": [
      {"measurement": "IMP levels", "setting": "ADSS [1]", "value": "dose-dependent increase"}
    ]},
    {"molecule": "N[C@@H](CN(O)N=O)C(=O)O", "note": "[L-alanosine, L-2-amino-3-(N-hydroxy-N-nitrosamino) propionic acid]", "values": [
      {"measurement": "levels of ADP", "setting": "ADSS [2]", "value": "decreased"},
      {"measurement": "levels of AMP", "setting": "ADSS [2]", "value": "decreased"},
      {"measurement": "levels of IMP", "setting": "ADSS [2]", "value": "increased"},
      {"measurement": "levels of aminoimidazole carboxamide ribotide (AICAR)", "setting": "ADSS [2]; metabolite upstream of ADSS", "value": "not affected"},
      {"measurement": "IMP levels", "setting": "ADSS [1]", "value": "dose-dependent increase"},
      {"measurement": "S-Ado levels", "setting": "ADSS [3]", "value": "decreased"}
    ]},
    {"molecule": "NS(=O)(=O)OC[C@@H]1C[C@@H](n2ccc3c(N[C@H]4CCc5ccccc54)ncnc32)C[C@@H]1O", "note": "[MLN4924]", "values": [
      {"measurement": "change in ADSS levels", "setting": "ADSS [4]", "value": "no change"}
    ]},
    {"molecule": "CC(C)C[C@H](NC(=O)[C@H](Cc1ccccc1)NC(=O)c1cnccn1)B(O)O", "note": "[bortezomib]", "values": [
      {"measurement": "change in ADSS levels", "setting": "ADSS [4]", "value": "no change"}
    ]}
  ]
}
